For three molecules, X-ray crystal structure results are on record in article PMC7933286, “Structure-guided selection of puromycin N-acetyltransferase mutants with enhanced selection stringency for deriving mammalian cell lines expressing recombinant proteins” (Scientific Reports, 2021).

This assay deals with T1, PAC (puromycin N-acetyltransferase) (Streptomyces alboniger, UniProt P13249).
T1 construct: native full-length pac amplified from pBABE-puro, N-terminal His6-tag (pET43a), expressed in E. coli BL21(DE3); IMAC and Superdex 75; tag removal not mentioned
T1 sequence (P13249 whole entry): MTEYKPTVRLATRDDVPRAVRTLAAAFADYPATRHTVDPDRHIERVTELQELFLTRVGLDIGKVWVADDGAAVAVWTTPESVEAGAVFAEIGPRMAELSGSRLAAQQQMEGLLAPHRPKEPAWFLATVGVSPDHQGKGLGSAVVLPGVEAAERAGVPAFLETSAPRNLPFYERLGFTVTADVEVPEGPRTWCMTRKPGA
Put plainly: X-ray crystal structure. Format: binding.

[1] abbreviates: crystals grown with 2 mM AcCoA and 2 mM puromycin, pH 8.26, trapped reaction product.

With `CC(C)(COP(=O)(O)OP(=O)(O)OC[C@H]1O[C@@H](n2cnc3c(N)ncnc32)[C@H](O)[C@@H]1OP(=O)(O)O)[C@@H](O)C(=O)NCCC(=O)NCCS` [CoA], the X-ray crystal structure entry under setting [1] was “The ligands modelled into this structure were CoA and N-acetylated puromycin”.

Regarding `COc1ccc(C[C@H](NC(C)=O)C(=O)N[C@H]2[C@@H](O)[C@H](n3cnc4c(N(C)C)ncnc43)O[C@@H]2CO)cc1` [N-acetylated puromycin], under setting [1], the X-ray crystal structure entry is “The ligands modelled into this structure were CoA and N-acetylated puromycin”.

On to `CC(=O)SCCNC(=O)CCNC(=O)[C@H](O)C(C)(C)COP(=O)(O)OP(=O)(O)OC[C@H]1O[C@@H](n2cnc3c(N)ncnc32)[C@H](O)[C@@H]1OP(=O)(O)O` [acetyl-CoA], for which the X-ray crystal structure entry (crystals with 0.1 mM AcCoA, pH 9.0, acetyl donor site) was “allowed the initial structure to be solved with AcCoA bound”.
